Measurements as given in patent US11186581B2, “2-(1,3-dimethyl-2,6-dioxo-1,2,3,6-tetrahydro-7H-purin-7-yl)-N-(6-(2-hydroxyphenyl)pyridazin-3-yl)acetamide as a Wnt pathway modulator” (Agency for Science, Technology and Research, priority 2017, dated 2021).
Values joined by “and” are separate entries in the source; they are usually repeats but may differ in a detail not shown here. Equal values may be shown once. Read-outs that look alike come from different tables or passages of the source.

Assay: Plasma pharmacokinetics after single intravenous and oral dose
Assay type: in vivo, male BALB/c mice
Conditions: for concentration at 24 hr: average of two values
Procedure: The objective of this study was to investigate the plasma pharmacokinetics of Compound 1 in male BALB/c mice following a single intravenous and oral dose administration. A group of eighteen male mice were divided in to two groups as Group 1 and Group 2 with nine mice in each group.
Animals in Group 1 were administered intravenously with Compound 1 solution formulation in 7.5% NMP, 5% Solutol HS-15 and 87.5% normal Saline at a dose of 1 mg/kg.
Animals in Group 2 were administered orally with Compound 1 solution formulation in 7.5% NMP, 5% Solutol HS-15 and 87.5% normal Saline at a dose of 5 mg/kg.
Blood samples (approximately 60 μL) were collected under light isoflurane anesthesia from retro orbital plexus at predose, 0.08, 0.25, 0.5, 1, 2, 4, 8 and 24 hr (IV) and predose, 0.25, 0.5, 1, 2, 4, 6, 8 and 24 hr (PO). During each sampling point, blood samples were collected in labeled pre-chilled tubes containing K2EDTA (20% K2EDTA solution) as an anticoagulant and protease inhibitor (10 μL of 10× solution/100 μL of blood). Low temperature was maintained till storage of plasma at −70° C. Plasma samples were separated by centrifugation of whole blood and stored below −70° C. until bioanalysis. All samples were processed for analysis by protein precipitation using acetonitrile (ACN) and analyzed with fit-for-purpose LC/MS/MS method (Lower limit of quantitation (LLOQ: 1.02 ng/mL). Pharmacokinetic parameters were calculated using the non-compartmental analysis tool of Phoenix WinNonlin® (Version 6.3). The overall pharmacokinetic parameters are summarized below:
The objective of the study is to determine the plasma pharmacokinetics of Compound 1 in male BALB/c mice following a single intravenous (1 mg/kg) and oral (5 mg/kg) administration in presence of a protease inhibitor.
A group of eighteen male mice were divided in to two groups as Group 1 and Group 2 with nine mice in each group. Animals in Group 1 were administered intravenously with Compound 1 solution formulation in 7.5% NMP, 5% Solutol HS-15 and 87.5% normal Saline at a dose of 1 mg/kg. Animals in Group 2 were administered orally with Compound 1 solution formulation in 7.5% NMP, 5% Solutol HS and 87.5% normal Saline at a dose of 5 mg/kg.
The dosing volume administered was 5 mL/kg for intravenous and 10 mL/kg for oral administration.
Blood samples (approximately 60 μL) were collected from retro-orbital plexus of three mice at each time point [predose, 0.08, 0.25, 0.5, 1, 2, 4, 8 and 24 hr (IV) and predose, 0.25, 0.5, 1, 2, 4, 6, 8 and 24 hr (PO)]. During each sampling point, blood samples were collected in labeled pre-chilled tubes containing K2EDTA (20% K2EDTA solution) as an anticoagulant and protease inhibitor (10 μL of 10× solution/100 μL of blood). Low temperature was maintained till storage of plasma at −70° C. Plasma was immediately harvested from the blood by centrifugation at 4000 rpm for 10 min at 4±2° C. and stored below −70° C. until bioanalysis. Preparation of protease inhibitor solution: One tablet of sigmaFAST (Product Code: 58820) was reconstituted into 10 mL of Milli-Q water to prepare 10× solution.
Concentrations of Compound 1 in mouse plasma samples were determined by fit-for-purpose LC-MS/MS method. The sample processing and extraction procedure, chromatographic and mass spectrometric conditions are provided below:
A 25 μL of study sample (DF was applied for few samples) or spiked plasma calibration standard was added to individual pre-labeled micro-centrifuge tubes followed by 100 μL of internal standard prepared in acetonitrile (Glipizide, 500 ng/mL) was added except for blank, where 100 μL of acetonitrile was added. Samples were vortexed for 5 minutes. Samples were centrifuged for 10 minutes at a speed of 4000 rpm at 4° C. Following centrifugation, 100 μL of clear supernatant was transferred in 96 well plates and analyzed using LC-MS/MS.
Non-Compartmental-Analysis tool of Phoenix WinNonlin® (Version 6.3) was used to assess the pharmacokinetic parameters. […]

[1] = male, BALB/c, mouse, IV 1 mg/kg, plasma
[2] = male, BALB/c, mouse, PO 5 mg/kg, plasma

## Cn1c(=O)c2c(ncn2CC(=O)Nc2ccc(-c3ccccc3O)nn2)n(C)c1=O [Compound 1, 2-(1,3-dimethyl-2,6-dioxo-1,2,3,6-tetrahydro-7H-purin-7-yl)-N-(6-(2-hydroxyphenyl)pyridazin-3-yl)acetamide]
IV 1 mg/kg
  Vss relative to normal volume of total body water (0.7 L/kg): ~2 fold
IV 1 mg/kg, 0.08 hr, 1 mg/kg
  Plasma concentration, individual animals: 1220.50 ng/mL and 2541.20 ng/mL and 2233.92 ng/mL
IV 1 mg/kg, 0.25 hr, 1 mg/kg
  Plasma concentration, individual animals: 1052.34 ng/mL and 1048.27 ng/mL
IV 1 mg/kg, 0.5 hr, 1 mg/kg
  Plasma concentration, individual animals: 899.26 ng/mL and 894.59 ng/mL
IV 1 mg/kg, 1 hr, 1 mg/kg
  Plasma concentration, individual animals: 151.52 ng/mL and 496.44 ng/mL and 268.90 ng/mL
IV 1 mg/kg, 2 hr, 1 mg/kg
  Plasma concentration, individual animals: 60.16 ng/mL and 49.49 ng/mL
IV 1 mg/kg, 4 hr, 1 mg/kg
  Plasma concentration, individual animals: 37.94 ng/mL and 27.10 ng/mL
IV 1 mg/kg, 8 hr, 1 mg/kg
  Plasma concentration, individual animals: 6.59 ng/mL and 27.95 ng/mL and 8.94 ng/mL
IV 1 mg/kg, 24 hr, below LLOQ considered zero, 1 mg/kg
  Plasma concentration, individual animals: 1.36 ng/mL and 1.10 ng/mL and 0.00 ng/mL
PO 5 mg/kg
  CL (expressed as CLf): 26.74 mL/min/kg
  Vss (expressed as Vz): 7.55 L/kg
PO 5 mg/kg, 2 animals out of 3, LLOQ 1.02 ng/mL
  Time up to which plasma concentrations were quantifiable: up to 24 hr
PO 5 mg/kg, 0.25 hr, 5 mg/kg
  Plasma concentration, individual animals: 2450.80 ng/mL and 1426.54 ng/mL
PO 5 mg/kg, 0.5 hr, 5 mg/kg
  Plasma concentration, individual animals: 2167.46 ng/mL and 1898.77 ng/mL and 1070.15 ng/mL
PO 5 mg/kg, 1 hr, 5 mg/kg
  Plasma concentration, individual animals: 474.33 ng/mL and 433.52 ng/mL
PO 5 mg/kg, 2 hr, 5 mg/kg
  Plasma concentration, individual animals: 331.78 ng/mL and 365.08 ng/mL
PO 5 mg/kg, 4 hr, 5 mg/kg
  Plasma concentration, individual animals: 86.92 ng/mL and 503.47 ng/mL and 59.61 ng/mL
PO 5 mg/kg, 6 hr, 5 mg/kg
  Plasma concentration, individual animals: 110.77 ng/mL and 81.54 ng/mL
PO 5 mg/kg, 8 hr, 5 mg/kg
  Plasma concentration, individual animals: 41.28 ng/mL and 53.22 ng/mL
PO 5 mg/kg, 24 hr, below LLOQ considered zero, 5 mg/kg
  Plasma concentration, individual animals: 0.00 ng/mL and 1.28 ng/mL and 2.31 ng/mL
male, BALB/c, mouse, plasma, iv, 1 mg/kg, IV 1 mg/kg, 0.08 hr
  concentration at 0.08 hr: 2000 ng/mL
male, BALB/c, mouse, plasma, iv, 1 mg/kg, IV 1 mg/kg, 0.25 hr, read-out: Plasma concentration, Mean
  concentration at 0.25 hr: 1020 ng/mL
male, BALB/c, mouse, plasma, iv, 1 mg/kg, IV 1 mg/kg, 0.25 hr, read-out: Plasma concentration, individual animals
  concentration at 0.25 hr: 948 ng/mL
male, BALB/c, mouse, plasma, iv, 1 mg/kg, IV 1 mg/kg, 0.5 hr, read-out: Plasma concentration, Mean
  concentration at 0.5 hr: 915 ng/mL
male, BALB/c, mouse, plasma, iv, 1 mg/kg, IV 1 mg/kg, 0.5 hr, read-out: Plasma concentration, individual animals
  concentration at 0.5 hr: 952 ng/mL
male, BALB/c, mouse, plasma, iv, 1 mg/kg, IV 1 mg/kg, 1 hr, read-out: Plasma concentration, Mean
  concentration at 1 hr: 306 ng/mL
male, BALB/c, mouse, plasma, iv, 1 mg/kg, IV 1 mg/kg, 2 hr, read-out: Plasma concentration, Mean
  concentration at 2 hr: 50.7 ng/mL
male, BALB/c, mouse, plasma, iv, 1 mg/kg, IV 1 mg/kg, 2 hr, read-out: Plasma concentration, individual animals
  concentration at 2 hr: 42.5 ng/mL
male, BALB/c, mouse, plasma, iv, 1 mg/kg, IV 1 mg/kg, 4 hr, read-out: Plasma concentration, Mean
  concentration at 4 hr: 34.7 ng/mL
male, BALB/c, mouse, plasma, iv, 1 mg/kg, IV 1 mg/kg, 4 hr, read-out: Plasma concentration, individual animals
  concentration at 4 hr: 39.2 ng/mL
male, BALB/c, mouse, plasma, iv, 1 mg/kg, IV 1 mg/kg, 8 hr, read-out: Plasma concentration, Mean
  concentration at 8 hr: 14.5 ng/mL
male, BALB/c, mouse, plasma, iv, 1 mg/kg, IV 1 mg/kg, 24 hr
  concentration at 24 hr: 1.23 ng/mL
male, BALB/c, mouse, plasma, po, 5 mg/kg, PO 5 mg/kg, 0.25 hr, read-out: Plasma concentration, Mean
  concentration at 0.25 hr: 1860 ng/mL
male, BALB/c, mouse, plasma, po, 5 mg/kg, PO 5 mg/kg, 0.25 hr, read-out: Plasma concentration, individual animals
  concentration at 0.25 hr: 1690 ng/mL
male, BALB/c, mouse, plasma, po, 5 mg/kg, PO 5 mg/kg, 0.5 hr, read-out: Plasma concentration, Mean
  concentration at 0.5 hr: 1710 ng/mL
male, BALB/c, mouse, plasma, po, 5 mg/kg, PO 5 mg/kg, 1 hr, read-out: Plasma concentration, Mean
  concentration at 1 hr: 457 ng/mL
male, BALB/c, mouse, plasma, po, 5 mg/kg, PO 5 mg/kg, 1 hr, read-out: Plasma concentration, individual animals
  concentration at 1 hr: 462 ng/mL
male, BALB/c, mouse, plasma, po, 5 mg/kg, PO 5 mg/kg, 2 hr, read-out: Plasma concentration, Mean
  concentration at 2 hr: 411 ng/mL
male, BALB/c, mouse, plasma, po, 5 mg/kg, PO 5 mg/kg, 2 hr, read-out: Plasma concentration, individual animals
  concentration at 2 hr: 535 ng/mL
male, BALB/c, mouse, plasma, po, 5 mg/kg, PO 5 mg/kg, 4 hr, read-out: Plasma concentration, Mean
  concentration at 4 hr: 217 ng/mL
male, BALB/c, mouse, plasma, po, 5 mg/kg, PO 5 mg/kg, 6 hr, read-out: Plasma concentration, Mean
  concentration at 6 hr: 91.8 ng/mL
male, BALB/c, mouse, plasma, po, 5 mg/kg, PO 5 mg/kg, 6 hr, read-out: Plasma concentration, individual animals
  concentration at 6 hr: 83.2 ng/mL
male, BALB/c, mouse, plasma, po, 5 mg/kg, PO 5 mg/kg, 8 hr, read-out: Plasma concentration, Mean
  concentration at 8 hr: 45.8 ng/mL
male, BALB/c, mouse, plasma, po, 5 mg/kg, PO 5 mg/kg, 8 hr, read-out: Plasma concentration, individual animals
  concentration at 8 hr: 43 ng/mL
male, BALB/c, mouse, plasma, po, 5 mg/kg, PO 5 mg/kg, 24 hr
  concentration at 24 hr: 1.8 ng/mL
male, BALB/c, mouse, plasma, IV 1 mg/kg, terminal elimination half-life, read-out: T1/2 (converted)
  half-life: 4.24 h
male, BALB/c, mouse, plasma, IV 1 mg/kg, read-out: Vss
  Vd: 1.2 L/kg
male, BALB/c, mouse, plasma, PO 5 mg/kg
  Tmax: 0.25 h
male, BALB/c, mouse, plasma, PO 5 mg/kg vs IV 1 mg/kg, solution, from AUClast, read-out: % F (oral bioavailability)
  bioavailability: 42%
male, BALB/c, mouse, plasma, PO 5 mg/kg, read-out: T1/2 (expressed as T1/2Z) (converted)
  half-life: 3.26 h
[1]
  AUC(0-inf): 1490 ng·h/mL
  AUC(0-t): 1480 ng·h/mL
male, BALB/c, mouse, IV 1 mg/kg, plasma clearance
  clearance: 11.2 mL/min/kg
male, BALB/c, mouse, IV 1 mg/kg, plasma, read-out: C0 (back extrapolated conc.)
  C0: 2750 ng/mL
[2]
  AUC(0-inf): 3120 ng·h/mL
  AUC(0-t): 3110 ng·h/mL
  Cmax: 1860 ng/mL
